Values after ≈ are worked out from the molar mass of the structure shown.
Assays:
[1] = target: T1, Orexin/Hypocretin receptor type 1 (Homo sapiens, UniProt O43613)
T1 sequence (O43613 whole entry): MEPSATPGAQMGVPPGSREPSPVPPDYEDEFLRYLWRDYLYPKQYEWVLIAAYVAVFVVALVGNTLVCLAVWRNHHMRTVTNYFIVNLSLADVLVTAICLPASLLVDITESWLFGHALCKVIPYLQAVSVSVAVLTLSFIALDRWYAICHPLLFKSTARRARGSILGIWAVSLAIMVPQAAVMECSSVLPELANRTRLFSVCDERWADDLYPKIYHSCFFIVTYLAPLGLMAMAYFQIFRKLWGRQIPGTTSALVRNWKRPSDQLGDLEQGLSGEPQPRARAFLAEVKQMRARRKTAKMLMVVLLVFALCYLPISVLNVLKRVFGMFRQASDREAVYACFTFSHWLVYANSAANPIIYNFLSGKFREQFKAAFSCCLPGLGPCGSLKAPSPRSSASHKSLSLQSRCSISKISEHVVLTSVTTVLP
Description: Antagonist activity at human OX1R expressed in CHO cells preincubated for 120 mins followed by orexin-A addition by FLIPR assay

[2] = target: T2, Orexin receptor type 2 (Homo sapiens, UniProt O43614)
T2 sequence (O43614 whole entry): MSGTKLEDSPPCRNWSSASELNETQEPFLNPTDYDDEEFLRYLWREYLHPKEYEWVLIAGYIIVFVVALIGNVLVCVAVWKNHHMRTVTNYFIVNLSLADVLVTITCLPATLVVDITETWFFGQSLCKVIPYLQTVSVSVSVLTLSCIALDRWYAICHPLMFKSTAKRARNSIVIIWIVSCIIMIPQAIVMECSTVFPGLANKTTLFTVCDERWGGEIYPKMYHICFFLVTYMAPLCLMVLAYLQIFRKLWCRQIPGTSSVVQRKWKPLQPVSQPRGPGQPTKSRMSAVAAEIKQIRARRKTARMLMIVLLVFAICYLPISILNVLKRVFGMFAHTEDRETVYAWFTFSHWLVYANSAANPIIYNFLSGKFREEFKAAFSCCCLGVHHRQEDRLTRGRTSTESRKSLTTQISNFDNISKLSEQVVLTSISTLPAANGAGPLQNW
Description: Antagonist activity at human OX2R expressed in CHO cells preincubated for 120 mins followed by orexin-A addition by FLIPR assay

[3] = in vitro; settings: human, liver microsomes
[4] = Apparent permeability across apical to basal side in MDCKI-MDR1 cells; assay type: ADME, cell-based, Canis lupus familiaris; settings: dog, MDCK-MDR1
[5] = Apparent permeability across basal to apical side in MDCKI-MDR1 cells; assay type: ADME, cell-based, Canis lupus familiaris; settings: dog, MDCK-MDR1
[6] = in vitro; settings: rat, liver microsomes
[7] = in vitro; settings: dog, MDCK-MDR1
Description: Efflux ratio in MDCKI-MDR1 cells

[8] = Unbound drug concentration in Wistar rat plasma at 1 mg/kg, po measured after 1 hr by LC-tandem MS analysis; assay type: ADME, organism-based; settings: in vivo
[9] = Unbound drug concentration in Wistar rat brain at 1 mg/kg, po measured after 1 hr by LC-tandem MS analysis; assay type: ADME, organism-based; settings: in vivo
[10] = Drug concentration in cerebrospinal fluid of Wistar rat at 1 mg/kg, po measured after 1 hr by LC-tandem MS analysis; assay type: ADME, organism-based; settings: read-out: Ct
[11] = Ratio of unbound drug concentration in Wistar rat brain to plasma at 1 mg/kg, po measured after 1 hr by LC-tandem MS analysis; assay type: ADME, organism-based; settings: read-out: K(p,uu,brain)
[12] = Solubility of compound in FeSSIF; assay type: ADME
[13] = target: T3, Orexin/Hypocretin receptor type 1 (Rattus norvegicus) (UniProt P56718); settings: Wistar, dose 1.0 mg/kg, route po, time 1.0 hrs
T3 sequence (whole entry): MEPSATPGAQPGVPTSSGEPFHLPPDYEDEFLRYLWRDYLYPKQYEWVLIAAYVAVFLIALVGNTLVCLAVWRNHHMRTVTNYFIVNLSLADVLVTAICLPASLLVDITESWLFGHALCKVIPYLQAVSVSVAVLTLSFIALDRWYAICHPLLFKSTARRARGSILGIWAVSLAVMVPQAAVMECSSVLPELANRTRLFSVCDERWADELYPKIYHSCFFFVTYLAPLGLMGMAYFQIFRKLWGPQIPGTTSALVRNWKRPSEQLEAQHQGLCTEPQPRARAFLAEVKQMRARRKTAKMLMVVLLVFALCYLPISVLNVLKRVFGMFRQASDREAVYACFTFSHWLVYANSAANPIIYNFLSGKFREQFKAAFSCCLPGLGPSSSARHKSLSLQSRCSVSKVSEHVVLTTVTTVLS

[14] = target: Cytochrome P450 3A4 (Homo sapiens, UniProt P08684); assay: Inhibition of CYP3A4 (unknown origin) using testosterone as substrate; assay type: ADME
Cytochrome P450 3A4, sequence (P08684 whole entry): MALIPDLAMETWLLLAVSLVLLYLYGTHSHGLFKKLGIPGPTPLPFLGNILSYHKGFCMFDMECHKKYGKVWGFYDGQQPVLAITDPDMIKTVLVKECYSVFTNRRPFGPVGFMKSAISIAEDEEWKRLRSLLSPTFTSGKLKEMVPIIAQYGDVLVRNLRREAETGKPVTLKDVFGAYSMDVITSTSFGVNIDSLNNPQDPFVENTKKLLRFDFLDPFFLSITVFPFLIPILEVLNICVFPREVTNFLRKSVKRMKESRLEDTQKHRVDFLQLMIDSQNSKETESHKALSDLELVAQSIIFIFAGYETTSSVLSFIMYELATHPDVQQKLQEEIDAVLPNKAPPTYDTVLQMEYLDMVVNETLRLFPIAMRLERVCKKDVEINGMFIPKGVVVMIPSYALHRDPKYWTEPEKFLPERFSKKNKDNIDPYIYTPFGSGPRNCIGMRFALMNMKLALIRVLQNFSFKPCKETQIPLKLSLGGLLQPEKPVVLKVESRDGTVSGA

[15] = Drug concentration in Wistar rat Cerebrospinal fluid at 30 mg/kg, po measured after 1 hr by LC-tandem MS analysis; assay type: ADME, organism-based; settings: read-out: Ct
[16] = Unbound drug concentration in Wistar rat brain at 30 mg/kg, po measured after 1 hr by LC-tandem MS analysis; assay type: ADME, organism-based; settings: in vivo
[17] = In vivo receptor occupancy at OX2R in Wistar rat brain at 30 mg/kg, po measured after 1 hr relative to control; assay type: functional
[18] = Drug concentration in Wistar rat Cerebrospinal fluid at 100 mg/kg, po measured after 1 hr by LC-tandem MS analysis; assay type: ADME, organism-based; settings: read-out: Ct
[19] = Unbound drug concentration in Wistar rat brain at 100 mg/kg, po measured after 1 hr by LC-tandem MS analysis; assay type: ADME, organism-based; settings: in vivo
[20] = In vivo receptor occupancy at OX2R in Wistar rat brain at 100 mg/kg, po measured after 1 hr relative to control; assay type: functional

Compound | IC50 [1] | IC50 [2] | microsomal CLint at 1 µM [3] | also measured
Cc1cccc(C(=O)N2CCOC[C@H]2Cc2cccc(-n3nccn3)c2)c1-n1nccn1 | 5.5 nM |  | 204 µL/min/mg | Papp A→B [4]: 16.1 ×10⁻⁶ cm/s; Papp B→A [5]: 66 ×10⁻⁶ cm/s; Cp(f) [8]: 278 nM; Drug uptake(free) [9]: 260 nM; concentration at 1 h [10]: 1000 nM; Kp uu at 1 h [11]: 0.94; solubility [12]: 337 µg/mL (≈ 785 µM); microsomal CLint at 1 µM [6]: > 1250 µL/min/mg
Cc1ccc(C(=O)N2CCOC[C@H]2Cc2ccc(C)c(-n3nccn3)c2)c(-n2nccn2)c1 | 1.4 nM | 184 nM | 391 µL/min/mg | 
Cc1nc(C(=O)N2CCC[C@H]2Cc2cccc(-n3nccn3)c2)c(-c2ccc(F)cc2)s1 | 17 nM | 100 nM |  | 
Cc1cccc(-c2ncncc2C(=O)N2CCC[C@H]2Cc2cccc(-n3nccn3)c2)c1 | 9.5 nM |  |  | 
O=C(c1cccc(F)c1-n1nccn1)N1CCOC[C@H]1Cc1cccc(-n2nccn2)c1 |  |  | 104 µL/min/mg | 
Cc1ccc(C(=O)N2CCOC[C@H]2Cc2cc(Cl)cc(-n3nccn3)c2)c(-n2nccn2)c1 | 1.9 nM |  | 89 µL/min/mg | 
O=C(c1ccccc1-c1ncccn1)N1CCC[C@H]1Cc1cccc(-n2nccn2)c1 | 4.4 nM |  |  | 
Cc1cccc(-c2sc(C)nc2C(=O)N2CCC[C@H]2Cc2cccc(-n3cccn3)c2)c1 |  | 20 nM |  | 
Cc1ccc(C(=O)N2CCOC[C@H]2Cc2cccc(-n3nccn3)c2)c(-n2nccn2)c1C | 2.8 nM | 2430 nM | 292 µL/min/mg | Papp A→B [4]: 11.8 ×10⁻⁶ cm/s; Papp B→A [5]: 59.4 ×10⁻⁶ cm/s; Cp(f) [8]: 72 nM; Drug uptake(free) [9]: 147 nM; concentration at 1 h [10]: 370 nM; Kp uu at 1 h [11]: 2.04; solubility [12]: 293 µg/mL (≈ 661 µM); Occ [13]: > 98%; microsomal CLint at 1 µM [6]: > 1250 µL/min/mg; efflux ratio [7]: 5
Cc1cccc(-c2sc(C)nc2C(=O)N2CCC[C@H]2Cc2cccc(-c3ncon3)c2)c1 |  | 4.4 nM |  | 
Cc1ccc(C(=O)N2CCOC[C@H]2Cc2cc(F)cc(-n3nccn3)c2)c(-n2nccn2)c1 | 3.5 nM |  | 164 µL/min/mg | 
O=C(c1ccccc1-n1nccn1)N1CCC[C@H]1Cc1cccc(-n2nccn2)c1 | 5.9 nM |  |  | 
Cc1ccc(C(=O)N2CCOC[C@H]2Cc2cc(-n3nccn3)ccc2F)c(-n2nccn2)c1 |  |  | 99 µL/min/mg | Cp(f) [8]: 177 nM; Drug uptake(free) [9]: 307 nM; concentration at 1 h [10]: 550 nM; Kp uu at 1 h [11]: 1.73; concentration at 1 h [15]: 45 nM; Drug uptake(free) [16]: 10 nM; Occ [17]: 13%; concentration at 1 h [18]: 550 nM; Drug uptake(free) [19]: 307 nM; Occ [20]: 82%
O=C(c1c(F)cccc1-n1nccn1)N1CCOC[C@H]1Cc1cccc(-n2nccn2)c1 |  | 1550 nM |  | 
Cc1ccc(C(=O)N2CCOC[C@H]2Cc2cccc(-n3nccn3)c2F)c(-n2nccn2)c1 | 21 nM | 2020 nM | 170 µL/min/mg | 
Cc1nc(C(=O)N2CCC[C@H]2Cc2cccc(-n3nccn3)c2)c(-c2ccc3c(c2)OCO3)s1 | 3.6 nM | 12 nM |  | 
Cc1ccc(C(=O)N2CCOC[C@H]2Cc2cc(-n3nccn3)ccc2Cl)c(-n2nccn2)c1 | 3.1 nM | 595 nM | 158 µL/min/mg | 

The next lines start with results.

IC50 [1] | IC50 [2] | microsomal CLint at 1 µM [3] | Compound | also measured
4.1 nM | 1110 nM | 208 µL/min/mg | Cc1ccc(C(=O)N2CCOC[C@H]2Cc2cc(-n3nccn3)ccc2C)c(-n2nccn2)c1 | 
 |  | 327 µL/min/mg | Cc1ccc(C(=O)N2CCO[C@@H](C)[C@H]2Cc2cccc(-n3nccn3)c2)c(-n2nccn2)c1 | 
1 nM |  | 623 µL/min/mg | Cc1ccc(C(=O)N2[C@H](Cc3cccc(-n4nccn4)c3)COC[C@H]2C)c(-n2nccn2)c1 | 
6.2 nM | 1430 nM | 157 µL/min/mg | COc1ccc(C(=O)N2CCOC[C@H]2Cc2cccc(-n3nccn3)c2)c(-n2nccn2)c1 | Papp A→B [4]: 8.7 ×10⁻⁶ cm/s; Papp B→A [5]: 62.4 ×10⁻⁶ cm/s; microsomal CLint at 1 µM [6]: > 1250 µL/min/mg; efflux ratio [7]: 7.2
 |  | 301 µL/min/mg | Cc1ccc(C(=O)N2CCO[C@H](C)[C@H]2Cc2cccc(-n3nccn3)c2)c(-n2nccn2)c1 | 
109 nM |  |  | Cc1cccc(-n2nccn2)c1C(=O)N1CCOC[C@H]1Cc1cccc(-n2nccn2)c1 | 
 |  | 59 µL/min/mg | O=C(c1ccccc1-n1nccn1)N1CCOC[C@H]1Cc1cccc(-n2nccn2)c1 | 
3 nM | 784 nM | 121 µL/min/mg | COc1ccc(-n2nccn2)c(C(=O)N2CCOC[C@H]2Cc2cccc(-n3nccn3)c2)c1 | Papp A→B [4]: 6.1 ×10⁻⁶ cm/s; Papp B→A [5]: 60.6 ×10⁻⁶ cm/s; microsomal CLint at 1 µM [6]: > 1250 µL/min/mg; efflux ratio [7]: 10
4 nM | 215 nM | 139 µL/min/mg | Cc1ccc(C(=O)N2C[C@@H](C)OC[C@H]2Cc2cccc(-n3nccn3)c2)c(-n2nccn2)c1 | 
 |  | 227 µL/min/mg | O=C(c1cc(F)ccc1-n1nccn1)N1CCOC[C@H]1Cc1cccc(-n2nccn2)c1 | 
34 nM | 1830 nM | 239 µL/min/mg | Cc1ccc(C(=O)N2[C@H](Cc3cccc(-n4nccn4)c3)COC[C@@H]2C)c(-n2nccn2)c1 | 
 | 1.7 nM | 634 µL/min/mg | Cc1ccc(-n2nccn2)c(C(=O)N2CCCC[C@H]2Cc2cccc(-n3nccn3)c2)c1 | microsomal CLint at 1 µM [6]: > 1250 µL/min/mg
11 nM | 265 nM | 322 µL/min/mg | Cc1ccc(C(=O)N2C[C@H](C)OC[C@H]2Cc2cccc(-n3nccn3)c2)c(-n2nccn2)c1 | 
 | 666 nM |  | Cc1ccc(-n2nccn2)c(C(=O)N2CCNC[C@H]2Cc2cccc(-n3nccn3)c2)c1 | IC50 [14]: 25000 nM
37 nM | 1040 nM | 101 µL/min/mg | O=C(c1ccc(F)cc1-n1nccn1)N1CCOC[C@H]1Cc1cccc(-n2nccn2)c1 | 
1.7 nM | 214 nM | 119 µL/min/mg | Cc1ccc(-n2nccn2)c(C(=O)N2CCOC[C@H]2Cc2cccc(-n3nccn3)c2)c1 | Papp A→B [4]: 15.3 ×10⁻⁶ cm/s; Papp B→A [5]: 55.9 ×10⁻⁶ cm/s; Cp(f) [8]: 36 nM; Drug uptake(free) [9]: 19 nM; concentration at 1 h [10]: 51 nM; Kp uu at 1 h [11]: 0.53; solubility [12]: 46 µg/mL (≈ 107 µM); Occ [13]: > 91%; microsomal CLint at 1 µM [6]: > 1250 µL/min/mg
0.7 nM | 7 nM | > 1250 µL/min/mg | Cc1ccc(-n2nccn2)c(C(=O)N2CCC[C@H]2Cc2cccc(-n3nccn3)c2)c1 | microsomal CLint at 1 µM [6]: > 1250 µL/min/mg
